Test results published in patent US20040151785A1, “Method for treating insulin resistance through hepatic nitric oxide” (DiaMedica Inc., priority 1998, published 2004).
Like-named read-outs stand apart in the source and are kept apart here.

Assays:
[1] = test system: cats; conditions: cited from earlier work
[2] = test system: rats; experiment: Rapid insulin sensitivity test (RIST), modified euglycemic clamp, in anesthetized rats; assay type: in vivo, rat; conditions: for inhibition at 50 mg/kg: Rattus norvegicus, iv
Protocol: Surgical preparation. The left jugular vein was cannulated for glucose infusion. Spontaneous respiration was allowed through a tracheal tube. The blood samples (25 μl) were obtained through a right femoral arterial-venous loop (30). The right femoral artery was cannulated with the arterial side of the loop. The right femoral vein was cannulated with the venous side of the arterial-venous loop. Arterial blood pressure was monitored via the arterial-venous loop by clamping the silicon sleeve on the venous side of the loop. One of the advantages of using this loop is that blood samples can be taken directly from a moving stream of blood with no need to wash or flush sampling catheters. The arterial blood continuously flows through the loop into the venous side. Intravenous infusions, except glucose, were given through the venous side of the loop.

[3] = test system: rats; experiment: Arterial blood pressure monitored via arterial-venous loop during RIST experiments; assay type: in vivo, rat; conditions: after atropine, group given intravenous L-NAME 1.0 mg/kg
Protocol: Surgical preparation. The left jugular vein was cannulated for glucose infusion. Spontaneous respiration was allowed through a tracheal tube. The blood samples (25 μl) were obtained through a right femoral arterial-venous loop (30). The right femoral artery was cannulated with the arterial side of the loop. The right femoral vein was cannulated with the venous side of the arterial-venous loop. Arterial blood pressure was monitored via the arterial-venous loop by clamping the silicon sleeve on the venous side of the loop. One of the advantages of using this loop is that blood samples can be taken directly from a moving stream of blood with no need to wash or flush sampling catheters. The arterial blood continuously flows through the loop into the venous side. Intravenous infusions, except glucose, were given through the venous side of the loop. After laparotomy, the portal vein was cannulated with a 24G (OPTIVA™, Johnson & Johnson Medical Inc.) intravenous catheter for intraportal drug administration.

CN1CCN(CC(=O)N2c3ccccc3C(=O)Nc3cccnc32)CC1 [parenzepine]
dose achieving a similar degree of insulin resistance [1]: 10^−7 mmol/kg

COc1ccccc1CNCCCCCCNCCCCCCCCNCCCCCCNCc1ccccc1OC [methoctramine]
dose required to produce a full / similar degree of insulin resistance [1]: 10^−8 μmol/kg

[NH-]c1c[n+](N2CCOCC2)no1 [SIN-1, 3-morpholinosyndnonimine]
inhibition of the control RIST remaining ([2]; SIN-1 5.0 mg/kg intraportal after intraportal L-NMMA 0.73 mg/kg, n=5): 24.0±11.6%
inhibition of the control RIST remaining ([2]; SIN-1 5.0 mg/kg intravenous after intraportal L-NMMA 0.73 mg/kg, n=4): 59.0±7.2%
inhibition of the control RIST remaining ([2]; SIN-1 10.0 mg/kg intraportal after intraportal L-NMMA 0.73 mg/kg, n=5): 0.6±5.8%
inhibition of the control RIST remaining ([2]; SIN-1 10.0 mg/kg intraportal after surgical denervation of the hepatic anterior plexus, n=6): 3.8±10.4%

CN1[C@@H]2CC[C@H]1C[C@@H](OC(=O)C(CO)c1ccccc1)C2 (stereo partly drawn) [atropine]
blood pressure [3]: 93.0±8.6 mmHg

N=C(N)NCCC[C@H](N)C(=O)O [L-arginine]
inhibition at 50 mg/kg ([2]; read-out: inhibition of control RIST): 53.8 ± 7.1%
inhibition at 50 mg/kg ([2]; read-out: inhibition of the control response): 48.8 ± 8.2%
